According to US10865188B2, “Dibenzo azepine compounds and their use in the treatment of otic diseases and disorders” (Pipeline Therapeutics, Inc., priority 2015, dated 2020):
pEC50, pIC50: −log10 of the molar value. Read-outs that look alike come from different tables or passages of the source.

Legend:
Atoh1 = assay: Human neural stem cell assay, Atoh1 gene expression (real-time PCR); format: cell-based; conditions: human neural stem cells, 7 point CRC, read-out: hNSC Atoh1 EC50
Protocol: (§1) Neural stem cells (NSC) were derived from embryonic stem cells using a published protocol (Yuan et al., Mar. 2, 2011, PLoS ONE, 6(3):e17540). Cells were sorted and characterized at passage 3 and were expanded. Cells were then frozen at passage 5. Cells were maintained in NSC media (DMEM/F12, N2 (1×), B27(1×) (Invitrogen), and Pen/Strep (1×) (Life Technologies) with 20 ng/ml bFGF (BD Bioscience/Corning)). On day 1, cells were plated in 96 well plates that have been previously coated with poly-ornithin and laminin, 60,000 cells/well in 100 μl of media. On day 2, spent media was removed, and 180 μl of fresh media was added to the cells. Later that same day (day 2), cells were treated with 20 μl of NSC media containing test compounds (7 point CRC). On day 3, spent media was removed and 140 μl of RLT/bME was added to the cells. RNA was extracted using the QiaCube (Qiagen®, Germantown, Md., USA) using the total RNA extraction+DNAse protocol. RNA was then reverse-transcribed to cDNA using iScript (Bio-Rad, Hercules, Calif., USA). cDNA was then used for real-time PCR analysis using iTaq Sybergreen (BioRad). Expression of Atoh1, Hes5, Hes1, Myosin7a genes was evaluated using CFX96 or CFX384 (Bio-Rad). HPRT1 was used as a reference gene. Analysis was done using Microsoft® Excel® and CBIS (ChemInnovation Software, Inc., San Diego, Calif., USA). […]

HES5 = assay: Human neural stem cell assay, Hes5 gene expression (real-time PCR); format: cell-based; conditions: human neural stem cells, 7 point CRC, read-out: hNSC HES5 IC50
Protocol: as §1

mice = assay: Auditory brainstem response (ABR) hearing threshold; format: in vivo; conditions: formulations of Examples 3(c) and 3(d) (2% w/v crystalline, poloxamer 407)
Protocol: Surgery was performed on naïve mice or mice with noise or pharmacologically-damaged ears. The animals were anesthetized with isoflurane and an 8 mm retroauricular incision was made to the lower caudal edge of the pinna. The skin was retracted and the fatty tissue was blunt dissected away from where the facial nerve and muscle come together. The muscle was retracted to reveal an area in the tympanic bulla where the bone was thin. A 30 g needle was used to drill a hole in the exposed thin portion of the otic bulla. A Hamilton syringe equipped with a 32 g blunt needle was inserted into the opening of the otic bulla. The drug formulation was delivered by injection and the needle removed. Wound closure was made with tissue glue.
Naïve mice or mice at various times after either noise or pharmacological deafening were anesthetized with ketamine/xylazine/acepromazine and the auditory brainstem response was determined in both ears using a Tucker Davis (Alachua, Fla.) RZ6 apparatus. The mice were exposed to clicks or pure tones of 4, 8, 16, 24 and 32 kHz at 90-10 dB in 10 dB descending steps and the hearing threshold was determined.

[1] = Guinea pig PK after transtympanic delivery (perilymph and cochlea, LC/MS/MS); format: in vivo; conditions: for concentration at 1 day / concentration at 7 day / concentration at 14 day / concentration at 3 day / concentration at 21 day / concentration at 28 day: male, Hartley, other: transtympanic, 30 μL, 30 μL transtympanic; for concentration at 1 day: Day 1, LLOQ = 0.08 μM; for concentration at 7 day: Day 7, LLOQ = 0.08 μM; for concentration at 14 day: Day 14, LLOQ = 0.08 μM; for concentration at 3 day: Day 3, LLOQ = 0.08 μM; for concentration at 21 day: Day 21, LLOQ = 0.08 μM; for concentration at 28 day: Day 28, LLOQ = 0.08 μM
Description: (§2) Male Hartley guinea pigs (300-350 g) were anesthetized with ketamine and xylazine. Thirty microliters of an aqueous pharmaceutical composition of the instant embodiments was delivered transtympanically to deposit the drug to the round window membrane. Delivery was unilateral. The animals were placed in a warm chamber in a lateral recumbent position keeping the dosed ear side up until they recover from anesthesia.
At various timepoints after administration, the animals were euthanized by CO2 inhalation. Blood and CSF were collected and stored at −80° C. The animals were decapitated, the temporal bones removed and the bulla opened to expose the otic capsule. Ipsilateral and contralateral perilymph were collected from the apex using a microcapillary tube. The ipsilateral cochlea was removed from the otic capsule and stored at −80° C. All tissues collected were analyzed using LC/MS/MS for test compound concentration as follows. Analytical standards were prepared by spiking known concentrations of the test compound stock solutions into matrices such as plasma or artificial CSF. Fixed amounts of tissues collected and spiked standards were precipitated with acetonitrile containing buspirone as an internal standard. The precipitated samples were centrifuged at 4000 g for 10 minutes at 4° C. The supernatants were analyzed using LC-MS/MS. The LC-MS/MS system was set up using the AB Sciex 4000 Qtrap (AB Sciex, Framingham, Mass.) equipped with Agilent 1200 series HPLC and CTC PAL Autosampler (Agilent Technologies, Santa Clara, Calif.).
Liquid compositions described herein were evaluated using the method described in Part E of the Biological Function section provided above. The liquid compositions prepared as described in Example 5(a)-5(d) were each drawn into a 1 mL syringe. Using the filled 1 mL syringe, the liquid composition was back-filled at 5° C. into a 100 μL Hamilton syringe adapted with 28 gauge needle. The Hamilton syringe was then allowed to warm to room temperature.
as §2, with “the above liquid” for “an aqueous pharmaceutical”, “were” for “of the instant embodiments was”, “The delivery” for “Delivery”, “recovered” for “recover”
At various timepoints after administration, the animals were euthanized by CO2 inhalation. Blood and cerebrospinal fluid were collected and stored at −80° C. The animals were decapitated, the temporal bones removed and the bulla were opened to expose the otic capsule. Ipsilateral and contralateral perilymph were collected from the apex using a microcapillary tube. The ipsilateral cochlea was removed from the otic capsule and was stored at −80° C. All tissues collected were analyzed using LC/MS/MS as described in Part E of the Biological Function section above.
The concentrations of Compound I and Compound II were measured using LC/MS/MS in both the perilymph fluid and the cochlea tissue after a transtympanic injection of an instant formulation of either the crystalline form or the amorphous form at various time points. […] Concentration of the instant compounds in the perilymph and/or cochlea tissue was above the human NSC EC50 for Atoh1, an indicator that the subject compounds may be efficacious in hair cell regeneration and hearing restoration in human. […] Table 3 below lists the results for the studies using aqueous formulations of crystalline Compound I while Table 4 below lists those for aqueous formulations of crystalline Compound II. The results for aqueous formulations of crystalline Compound I are also graphically shown in FIG. 5A and FIG. 5B while the results for aqueous formulations of crystalline Compound II are graphically shown in FIG. 6A and FIG. 6B.

[2] = cochlea, Amorphous form (Example 5(b)), read-out: Cochlea Average concentration
[3] = cochlea, Crystalline form (Example 5(a)), read-out: Cochlea Average concentration
[4] = perilymph, Amorphous form (Example 5(b)), read-out: perilymph Average concentration
[5] = perilymph, Crystalline form (Example 5(a)), read-out: Perilymph Average concentration

## C[C@H](OC(=O)NCC(F)(F)C(F)(F)F)C(=O)N[C@@H]1C(=O)Nc2ccccc2-c2ccccc21 [Compound I, (2,2,3,3,3-pentafluoropropyl)-carbamic acid (S)-1-((S)-6-oxo-6,7-dihydro-5H-dibenzo[b,d]azepin-7-ylcarbamoyl) ethyl ester]
Atoh1
  pEC50: 6.20
HES5
  pIC50: 6.54
mice; 16 kHz
  ABR Threshold Improvement: 7 dB
mice; 24 kHz
  ABR Threshold Improvement: 10 dB
mice; 32 kHz
  ABR Threshold Improvement: 8 dB
[1]; dosed as the amorphous form, transtympanic
  concentration in the perilymph and the cochlea compared with the human NSC EC50 for Atoh1: above the human NSC EC50 for Atoh1 at 1 day and 7 days
[1]; dosed as the crystalline form, transtympanic
  concentration in the perilymph and the cochlea compared with the human NSC EC50 for Atoh1: above the NSC EC50 from day 1 to day 28
[1]; [2]
  concentration at 1 day: 211 µM
  concentration at 7 day: 28.4 µM
  concentration at 14 day: 0.04 µM
[1]; [3]
  concentration at 1 day: 69 µM
  concentration at 3 day: 25.6 µM
  concentration at 7 day: 4.1 µM
  concentration at 14 day: 9 µM
  concentration at 21 day: 6.2 µM
  concentration at 28 day: 12.8 µM
[1]; [4]
  concentration at 1 day: 33.3 µM
  concentration at 7 day: 14 µM
  concentration at 14 day: 0 µM
[1]; [5]
  concentration at 1 day: 395 µM
  concentration at 3 day: 568 µM
  concentration at 7 day: 18.9 µM
  concentration at 14 day: 116 µM
  concentration at 21 day: 18.2 µM
  concentration at 28 day: 10.4 µM
[1]; transtympanic, formulations of Example 5(a)-5(d)
  exposure to the inner ear, crystalline formulation versus respective amorphous formulation: longer exposure
